Assay results taken from paper PMC4554294 (Biochemistry and Biophysics Reports, 2015).

Columns and labels:
Experiment in all cases: saturation transfer difference
Assay type in all cases: binding
[1] = biological target: T1, sucrose phosphorylase (LmSPase) (Leuconostoc mesenteroides, UniProt Q59495)
T1 sequence (Q59495 1-490): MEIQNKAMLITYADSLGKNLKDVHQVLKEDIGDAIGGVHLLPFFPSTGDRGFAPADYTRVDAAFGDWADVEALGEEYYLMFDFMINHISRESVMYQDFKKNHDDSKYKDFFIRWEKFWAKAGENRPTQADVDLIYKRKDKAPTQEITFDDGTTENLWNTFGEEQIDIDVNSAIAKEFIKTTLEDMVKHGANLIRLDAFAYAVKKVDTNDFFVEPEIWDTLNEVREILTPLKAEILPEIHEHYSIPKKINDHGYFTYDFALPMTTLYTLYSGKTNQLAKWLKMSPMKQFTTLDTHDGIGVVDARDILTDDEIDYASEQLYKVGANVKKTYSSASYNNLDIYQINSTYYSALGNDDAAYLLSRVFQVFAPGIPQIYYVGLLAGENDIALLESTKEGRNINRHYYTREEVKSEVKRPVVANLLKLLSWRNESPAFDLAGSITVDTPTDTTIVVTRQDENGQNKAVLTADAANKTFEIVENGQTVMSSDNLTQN

[2] = biological target: T2, sucrose phosphorylase (LmSPase) (Leuconostoc mesenteroides, UniProt Q59495, F52A)
T2 sequence (Q59495 1-490 F52A): T1 sequence (Q59495 1-490)

[3] = biological target: T3, sucrose phosphorylase (LmSPase) (Leuconostoc mesenteroides, UniProt Q59495, F52A/E237A)
T3 sequence (Q59495 1-490 F52A/E237A): T1 sequence (Q59495 1-490)

[4] = biological target: T4, sucrose phosphorylase (LmSPase) (Leuconostoc mesenteroides, UniProt Q59495, F52A/D295A)
T4 sequence (Q59495 1-490 F52A/D295A): T1 sequence (Q59495 1-490)

[5] = biological target: T5, sucrose phosphorylase (LmSPase) (Leuconostoc mesenteroides, UniProt Q59495, F52A/D196A)
T5 sequence (Q59495 1-490 F52A/D196A): T1 sequence (Q59495 1-490)

`O=P(O)(O)O[C@H]1O[C@H](CO)[C@@H](O)[C@H](O)[C@H]1O` [αGlc 1-P, α-D-glucose 1-phosphate] was tested. Which “saturation transfer difference (STD) NMR, 7 μM enzyme, 5.0 mM ligand” value [1] did it give?
The value was “Binding of αGlc 1-P to LmSPase resulted in a characteristic pattern of STD effects”.

What about the “saturation transfer difference (STD) NMR” value [2] of the same compound?
Its value is “STD effects in αGlc 1-P were considerably weaker in F52A mutant than in wild-type enzyme”.

And the “saturation transfer difference (STD) NMR” value [3]?
The value was “suggesting that binding of αGlc 1-P did take place in each double mutant”.

And the “saturation transfer difference (STD) NMR; steady-state kinetics” value [4]?
Its value is “STD signal intensities were higher on binding of αGlc 1-P to F52A_D295A mutant as compared to wild-type”.

What about the “saturation transfer difference (STD) NMR” value [5] of the same compound?
The value was “Incubation of either double mutant with αGlc 1-P gave rise to distinct STD effects in the ligand”.
